Measured values as given in ChEMBL document CHEMBL4257513 (Medchemcomm, 2018).
Active and inactive are the calls of the source. The rule behind the calls is not given here.

Assays:
Tyrosinase [1] = molecular target: T1, Tyrosinase (Agaricus bisporus, UniProt O42713)
T1 sequence (O42713 whole entry): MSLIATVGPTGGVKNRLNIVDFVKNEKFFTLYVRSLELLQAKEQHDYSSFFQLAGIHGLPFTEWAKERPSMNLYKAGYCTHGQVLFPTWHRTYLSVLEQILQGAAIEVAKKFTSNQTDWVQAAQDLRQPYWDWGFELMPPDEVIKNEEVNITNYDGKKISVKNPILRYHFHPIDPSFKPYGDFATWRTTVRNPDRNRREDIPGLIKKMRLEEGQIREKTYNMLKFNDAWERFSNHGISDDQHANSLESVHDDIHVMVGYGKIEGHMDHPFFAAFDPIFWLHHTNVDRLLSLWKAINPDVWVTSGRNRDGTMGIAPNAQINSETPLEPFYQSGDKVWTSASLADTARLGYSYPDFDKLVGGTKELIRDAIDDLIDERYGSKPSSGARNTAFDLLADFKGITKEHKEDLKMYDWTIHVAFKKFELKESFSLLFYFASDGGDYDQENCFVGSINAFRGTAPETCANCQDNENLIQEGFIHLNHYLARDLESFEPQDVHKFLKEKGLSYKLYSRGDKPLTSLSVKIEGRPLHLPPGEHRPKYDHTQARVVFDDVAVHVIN
Description: Inhibition of mushroom tyrosinase using L-dopa as substrate preincubated for 10 mins followed by substrate addition and measured for 1 min by spectrophotometric method

[2] = molecular target: T2, Tyrosinase (Agaricus bisporus) (UniProt O42713); assay: Inhibition of mushroom tyrosinase at 100 uM using L-dopa as substrate preincubated for 10 mins followed by substrate addition and measured for 1 min by spectrophotometric method relative to control
T2 sequence (whole entry): T1 sequence (O42713 whole entry)

Tyrosinase [3] = molecular target: T1, Tyrosinase; assay: Mixed-type inhibition of mushroom tyrosinase using varying levels of L-dopa as substrate preincubated for 10 mins followed by substrate addition and measured for 1 min by Lineweaver-burk plot analysis
Tyrosinase [4] = molecular target: T1, Tyrosinase; assay: Mixed-type inhibition of mushroom tyrosinase assessed as inhibitory constant for enzyme-substrate complex using varying levels of L-dopa as substrate preincubated for 10 mins followed by substrate addition and measured for 1 min by Lineweaver-burk plot analysis
[5] = molecular target: T2, Tyrosinase (Agaricus bisporus); assay: Reversible inhibition of mushroom tyrosinase at 2 to 20 uM using L-dopa as substrate preincubated for 10 mins followed by substrate addition and measured for 1 min by spectrophotometric method
[6] = molecular target: T2, Tyrosinase (Agaricus bisporus); assay: Potency index, ratio of kojic acid IC50 to test compound IC50 for mushroom tyrosinase
[7] = molecular target: T2, Tyrosinase (Agaricus bisporus); assay: Reversible inhibition of mushroom tyrosinase up to 5 uM using L-dopa as substrate preincubated for 10 mins followed by substrate addition and measured for 1 min by spectrophotometric method
Tyrosinase [8] = molecular target: T1, Tyrosinase; assay: Noncompetitive inhibition of mushroom tyrosinase assessed as inhibitory constant for enzyme-substrate complex using varying levels of L-dopa as substrate preincubated for 10 mins followed by substrate addition and measured for 1 min by Lineweaver-burk plot analysis
Tyrosinase [9] = molecular target: T1, Tyrosinase; assay: Noncompetitive inhibition of mushroom tyrosinase using varying levels of L-dopa as substrate preincubated for 10 mins followed by substrate addition and measured for 1 min by Lineweaver-burk plot analysis
[10] = molecular target: T2, Tyrosinase (Agaricus bisporus); assay: Reversible inhibition of mushroom tyrosinase at 5 to 20 uM using L-dopa as substrate preincubated for 10 mins followed by substrate addition and measured for 1 min by spectrophotometric method

Compound | IC50 (Tyrosinase [1]) [µM] | inhibition [2] [%] | also measured
O=C(O)/C=C/c1ccc(O)cc1 [COUMARIC ACID] | 4710 |  | 
Cc1ccc(/C=C/C(=O)Oc2cc(C)ccc2C(C)C)cc1 | > 100 | < 40 | 
Cc1ccc(C(C)C)c(OC(=O)/C=C/c2ccccc2)c1 | > 100 | < 40 | 
COc1ccc(C(C)=O)c(OC(=O)/C=C/c2ccc(F)cc2)c1 | 8.3 | > 40 | Ki (Tyrosinase [3]): 10 µM; Ki (Tyrosinase [4]): 35.6 µM; inhibition [5]: Active
Cc1ccc(C(C)C)c(OC(=O)/C=C/c2ccc(Cl)cc2)c1 | > 100 | < 40 | 
COc1ccc(C(C)=O)c(OC(=O)/C=C/c2ccc(C)cc2)c1 | 39 | > 40 | 
COc1ccc(/C=C/C(=O)Oc2cc(C)ccc2C(C)C)cc1 | > 100 | < 40 | 
COc1ccc(C(C)=O)c(OC(=O)/C=C/c2ccc(O)cc2)c1 | 2 | > 40 | Ratio IC50 [6]: 16; inhibition [7]: Active; Ki (Tyrosinase [8]): 3.8 µM; Ki (Tyrosinase [9]): 3.8 µM
COc1cc(/C=C/C(=O)Oc2cc(C)ccc2C(C)C)ccc1O | > 100 | < 40 | 
Cc1ccc(C(C)C)c(OC(=O)/C=C/c2ccc(F)cc2)c1 | > 100 | < 40 | 
Cc1ccc(C(C)C)c(OC(=O)/C=C/c2ccc(O)cc2)c1 | 10.6 | > 40 | Ki (Tyrosinase [3]): 8 µM; Ki (Tyrosinase [4]): 72.2 µM; inhibition [10]: Active; Ratio IC50 [6]: 3
COc1ccc(C(C)=O)c(OC(=O)/C=C/c2ccc(O)c(OC)c2)c1 | > 100 | < 40 | 
COc1ccc(C(C)=O)c(O)c1 [PAEONOL] | 121 |  | 
COc1ccc(C(C)=O)c(OC(=O)/C=C/c2ccc(Cl)cc2)c1 | 164 | > 40 | 
COc1ccc(C(C)=O)c(OC(=O)/C=C/c2ccccc2)c1 | > 100 | < 40 | 
COc1ccc(/C=C/C(=O)Oc2cc(OC)ccc2C(C)=O)cc1 | 77.4 | > 40 | 
